Reference: EP0572863A1, “CNS pyrazinoindoles” (priority 1992, dated 1993)
Like-named read-outs stand apart in the source and are kept apart here.

Legend:
[1] = target: 5HT₂-Rezeptor (Homo sapiens, UniProt P28223); test: 3H-Metanserin binding test (test method d)
[2] = target: T1, 5HT1A-Rezeptor (Homo sapiens, UniProt P08908); test: 3H-8-OH-DPAT binding test (test method a)
T1 sequence (P08908 1-422): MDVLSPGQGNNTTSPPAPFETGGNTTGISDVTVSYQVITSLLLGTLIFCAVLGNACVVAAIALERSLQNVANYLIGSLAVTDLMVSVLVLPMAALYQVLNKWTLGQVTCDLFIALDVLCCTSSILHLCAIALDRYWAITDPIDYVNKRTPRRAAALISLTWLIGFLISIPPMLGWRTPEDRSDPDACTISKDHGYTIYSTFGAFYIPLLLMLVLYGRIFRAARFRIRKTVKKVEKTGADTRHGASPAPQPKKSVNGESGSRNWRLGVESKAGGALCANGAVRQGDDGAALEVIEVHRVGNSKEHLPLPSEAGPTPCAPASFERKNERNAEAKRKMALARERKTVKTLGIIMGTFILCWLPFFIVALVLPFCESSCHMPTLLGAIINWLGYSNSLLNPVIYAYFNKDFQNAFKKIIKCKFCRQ

[3] = target: 5HT1C-Rezeptor (Homo sapiens, UniProt P28335); test: 3H-Mesulergin binding test (test method c)
Sequence of 5HT1C-Rezeptor (P28335 33-458): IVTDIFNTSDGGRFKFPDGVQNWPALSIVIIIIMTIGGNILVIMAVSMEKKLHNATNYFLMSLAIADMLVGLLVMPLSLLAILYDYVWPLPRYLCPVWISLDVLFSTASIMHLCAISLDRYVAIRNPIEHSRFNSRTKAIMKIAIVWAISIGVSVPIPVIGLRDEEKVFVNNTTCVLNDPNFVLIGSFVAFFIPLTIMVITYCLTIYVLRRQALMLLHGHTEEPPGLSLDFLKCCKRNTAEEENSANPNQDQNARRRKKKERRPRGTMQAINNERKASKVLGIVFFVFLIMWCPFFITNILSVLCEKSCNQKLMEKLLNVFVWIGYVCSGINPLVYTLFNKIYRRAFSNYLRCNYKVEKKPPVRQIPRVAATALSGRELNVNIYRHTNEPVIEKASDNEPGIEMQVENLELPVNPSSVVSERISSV

[4] = target: T2, 5HT1c-Rezeptoren (Rattus norvegicus, UniProt P08909); test: Antagonism of mCPP-induced penile erections; assay type: in vivo, Ratte; details: mCPP-pretreated, dose inhibiting number of penile erections within 45 min by 50%
T2 construct: from tissue; host or cells: living rat (whole animal)
T2 sequence (P08909 33-460): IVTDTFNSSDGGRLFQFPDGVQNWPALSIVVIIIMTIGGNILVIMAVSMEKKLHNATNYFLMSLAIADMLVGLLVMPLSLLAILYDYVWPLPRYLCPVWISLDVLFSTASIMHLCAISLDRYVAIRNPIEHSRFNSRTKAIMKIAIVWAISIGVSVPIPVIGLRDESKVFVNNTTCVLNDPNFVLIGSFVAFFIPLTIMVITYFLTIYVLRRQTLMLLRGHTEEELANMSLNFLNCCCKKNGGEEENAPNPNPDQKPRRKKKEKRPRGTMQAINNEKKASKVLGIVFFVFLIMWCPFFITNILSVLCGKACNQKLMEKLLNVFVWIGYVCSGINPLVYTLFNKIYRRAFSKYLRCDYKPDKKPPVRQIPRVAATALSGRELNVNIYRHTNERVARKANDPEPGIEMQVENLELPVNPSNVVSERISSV

[5] = target: T3, 5HT₂-Rezeptoren (Rattus norvegicus, UniProt P14842); test: Antagonism of Quipazine-induced head shakes; assay type: in vivo, Ratte; details: Quipazine-pretreated, dose inhibiting number of head shakes within 45 min by 50%
T3 construct: from tissue; host or cells: living rat (whole animal)
T3 sequence (P14842 whole entry): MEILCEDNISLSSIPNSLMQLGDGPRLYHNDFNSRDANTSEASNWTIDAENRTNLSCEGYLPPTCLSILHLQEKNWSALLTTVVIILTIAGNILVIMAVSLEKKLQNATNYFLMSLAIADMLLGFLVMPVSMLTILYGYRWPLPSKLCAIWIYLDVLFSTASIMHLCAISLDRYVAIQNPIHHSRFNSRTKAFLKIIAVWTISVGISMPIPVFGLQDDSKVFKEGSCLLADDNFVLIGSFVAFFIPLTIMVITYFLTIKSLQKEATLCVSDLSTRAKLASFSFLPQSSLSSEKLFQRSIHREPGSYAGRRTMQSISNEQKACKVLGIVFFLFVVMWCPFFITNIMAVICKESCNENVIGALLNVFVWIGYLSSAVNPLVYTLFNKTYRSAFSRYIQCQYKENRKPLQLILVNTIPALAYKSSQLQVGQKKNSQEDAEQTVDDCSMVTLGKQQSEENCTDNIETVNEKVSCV

[6] = Testmethode c, concentration displacing 50% of receptor-bound ligand (3H-Mesulergin), read-out: IC₅₀
[7] = Testmethode d, concentration displacing 50% of receptor-bound ligand (3H-Metanserin), read-out: IC₅₀
[8] = Testmethode a, concentration displacing 50% of receptor-bound ligand (3H-8-OH-DPAT), read-out: IC₅₀

Sequence of 5HT₂-Rezeptor (P28223 whole entry): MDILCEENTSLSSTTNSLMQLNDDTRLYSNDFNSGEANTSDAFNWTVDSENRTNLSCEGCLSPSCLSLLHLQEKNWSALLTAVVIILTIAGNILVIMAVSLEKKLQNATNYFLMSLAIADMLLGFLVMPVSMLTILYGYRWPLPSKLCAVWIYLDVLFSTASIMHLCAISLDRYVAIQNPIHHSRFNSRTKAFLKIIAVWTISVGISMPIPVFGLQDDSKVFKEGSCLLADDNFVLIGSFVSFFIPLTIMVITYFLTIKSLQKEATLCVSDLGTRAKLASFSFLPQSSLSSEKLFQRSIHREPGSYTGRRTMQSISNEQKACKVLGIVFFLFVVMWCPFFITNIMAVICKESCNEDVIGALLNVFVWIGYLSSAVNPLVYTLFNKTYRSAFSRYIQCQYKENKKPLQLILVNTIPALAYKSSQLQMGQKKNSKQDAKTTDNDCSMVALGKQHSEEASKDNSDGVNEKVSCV

| Structure (SMILES) | IC50 [1] | IC50 [2] | IC50 [3, 6] | IC50 [1, 7] | IC50 [3] | IC50 [2, 8] | ID₅₀ [4] | ID₅₀ [5] |
| --- | --- | --- | --- | --- | --- | --- | --- | --- |
| O=c1ccc2[nH]cc(C3=CCNCC3)c2[nH]1 [CP 93129, reference compound] | 29200 nM | 1620 nM | – | – | – | – | – | – |
| COc1ccccc1N1CCN(CCCCN2C(=O)c3ccccc3C2=O)CC1 [NAN-190, reference compound] | 581 nM | – | 1800 nM | – | – | – | – | – |
| Cc1nc2ccccn2c(=O)c1CCN1CCC(C(=O)c2ccc(F)cc2)CC1 [Pirenperon, reference compound] | – | 2870 nM | – | 2.9 nM | 37 nM | – | – | – |
| COc1ccc2[nH]cc(C3=CCNCC3)c2c1 [RU 24969, reference compound] | – | 8 nM | – | – | – | – | – | – |
| Cc1nc2sccn2c(=O)c1CCN1CCC(=C(c2ccc(F)cc2)c2ccc(F)cc2)CC1 [Ritanserin, reference compound] | – | – | 37 nM | – | – | – | – | – |
| COc1c2n(c3ccccc13)CCNC2 [Substanz A, 10-Methoxy-1,2,3,4-tetrahydropyrazino[1,2-a]-indol] | – | – | – | – | – | 687 nM | – | – |
| COc1c2n(c3ccc(F)cc13)CCNC2 [Substanz B, 8-Fluor-1,2,3,4-tetrahydro-10-methoxy-pyrazino[1,2-a]-indol] | 9390 nM | 2370 nM | – | – | 367 nM | – | 4.2 mg/kg, s.c. | – |
| COc1c2n(c3cccc(F)c13)CCNC2 [Substanz C, 9-Fluor-1,2,3,4-tetrahydro-10-methoxy-pyrazino[1,2-a]indol] | 5170 nM | 1070 nM | – | – | 221 nM | – | 17.0 mg/kg, s.c. | – |
| COc1c2n(c3ccc(Cl)cc13)CCNC2 [Substanz D, 8-Chlor-1,2,3,4-tetrahydro-10-methoxy-pyrazino[1,2-a]-indol] | – | 657 nM | – | 3140 nM | 195 nM | – | – | – |
| COc1c2n(c3cccc(Br)c13)CCNC2 [Substanz E, 9-Brom-1,2,3,4-tetrahydro-10-methoxy-pyrazino[1,2-a]indol] | 1020 nM | 407 nM | – | – | 83.8 nM | – | 4.3 mg/kg, s.c. | 3.1 mg/kg. s.c. |
| COc1c2n(c3cc(Cl)ccc13)CCNC2 [Substanz F, 7-Chlor-1,2,3,4-tetrahydro-10-methoxy-pyrazino[1,2-a]indol] | – | 425 nM | 406 nM | 9460 nM | – | – | – | – |
| COc1c2n(c3ccc(Br)cc13)CCNC2 [Substanz G, 8-Brom-1,2,3,4-tetrahydro-10-methoxy-pyrazino[1,2-a]indol] | – | 298 nM | 269 nM | 2810 nM | – | – | – | – |
| COc1c2n(c3ccc(F)c(Cl)c13)CCNC2 [Substanz H, 9-Chlor-8-fluor-1,2,3,4-tetrahydro-10-methoxy-pyrazino[1,2-a]indol] | – | 354 nM | 90.5 nM | 1030 nM | – | – | – | – |
| COc1c2n(c3cccc(C)c13)CCNC2 [Substanz I, 1,2,3,4-Tetrahydro-10-methoxy-9-methyl-pyrazino[1,2-a]indol] | – | – | 219 nM | 2270 nM | – | 106 nM | 2.7 mg/kg, s.c. | 3.0 mg/kg. s.c. |
| COc1c2n(c3cccc(C(F)(F)F)c13)CCNC2 [Substanz J, 9-Trifluormethyl-1,2,3,4-tetrahydro-10-methoxy-pyrazino[1,2-a]-indol] | – | 512 nM | 66 nM | 374 nM | – | – | – | – |
| CSc1c2n(c3ccccc13)CCNC2 [Substanz K, 1,2,3,4-Tetrahydro-10-methylthiopyrazino[1,2-a]-indol] | – | – | – | – | – | 705 nM | – | – |
| COc1c2n(c3cc(Cl)cc(Cl)c13)CCNC2 [Substanz L, 7,9-Dichlor-1,2,3,4-tetrahydro-10-methoxy-pyrazino[1,2-a]indol] | – | 459 nM | 251 nM | 5850 nM | – | – | – | – |
| COc1c2n(c3c(Br)cccc13)CCNC2 [Substanz M, 6-Brom-1,2,3,4-tetrahydro-10-methoxy-pyrazino[1,2-a]indol] | – | 690 nM | 923 nM | 3030 nM | – | – | – | – |
| Fc1ccc2c(cc3n2CCNC3)c1Cl [Substanz N, 9-Chlor-8-fluor-1,2,3,4-tetrahydropyrazino[1,2-a]indol] | – | 964 nM | 57 nM | 902 nM | – | – | 4.2 mg/kg, s.c. | 5.2 mg/kg. s.c. |
| Clc1cccc(N2CCNCC2)c1 [mCPP, reference compound] | – | 227 nM | – | – | – | – | – | – |
